From PubChem BioAssay AID489006 (Sanford-Burnham Center for Chemical Genomics, 2010) come the findings set out here.

The assay relates to Jurkat NF-kB reporter, luminescence. The assay can be described thus: NF-kB reporter inhibition in Jurkat cells, dose response, selectivity assay for B-cell receptor NF-kB inhibitor project, cell-based, luminescence (AID 489006).

Active and inactive are the calls of the source. The rule behind the calls is not given here. Some results are limits rather than exact numbers.

By IC50 is commonly meant the concentration at which inhibition is half-maximal. With `COc1ccc(C(=O)n2nc(-c3ccc(Cl)cc3)nc2N)cc1OC`, the IC50 is 2.9 µM.

Turning to `NC(=O)C1CCN(C(=O)COc2ccc3ccccc3c2Br)CC1`, the IC50 was > 80 µM (inactive).

As to `CCN1C(=O)c2cccc3c(NC(=O)c4cccc(N5C(=O)CCC5=O)c4)ccc1c23`, the IC50 was > 80 µM (inactive).

For `COc1ccc(C(=O)Nc2cccc(NC(=O)c3ccc(OC)c(OC)c3)n2)cc1OC`, the half-maximal inhibitory concentration (IC50) was 9.7 µM.

For the molecule `CCCCCC/C=C/c1ccc(OC)c([C@H]2[C@H]3C=CC[C@@H](C)[C@@H]3C(=O)N2Cc2ccccc2)c1`, the IC50 is > 80 µM (inactive).

For `COc1ccc(C(=O)N/N=C/c2ccc(OC)c(CN3CCCc4ccccc43)c2)cc1`, the IC50 was > 80 µM (inactive).

In the case of `CCCCCCn1c(-c2ccco2)nc2oc3cc(OC)ccc3c(=O)c2c1=O`, the IC50 was > 80 µM (inactive).

As to `COc1ccc(-c2noc(CCCC(=O)O)n2)cc1`, the concentration for half-maximal inhibition (IC50) was 1.4 µM.

With `CCn1c(=O)cc(OCC(=O)NCc2ccc(C)o2)c2ccccc21`, the IC50 is > 80 µM (inactive).

Regarding `COc1ccc(-c2csc3nc(-c4cccnc4)nc(N4CCC(C(N)=O)CC4)c23)cc1OC`, the IC50 is 12.1 µM.

As for `Cc1ccc2nc(NC(=O)CSCC(=O)OCC(=O)c3ccc(Br)cc3)sc2c1`, the IC50 is 0.33 µM.

Consider `Cc1nn(C(C)(C)C)c(OC(=O)c2ccc(Br)o2)c1Sc1ccccc1`, for which the IC50 was > 80 µM (inactive).

`CC(C)(C)c1ccc(-c2noc(CCC(=O)N3CCOCC3)n2)cc1`: the IC50 was > 80 µM (inactive).

In the case of `CCN1C(=O)c2cccc3c(S(=O)(=O)N4CCC(C)CC4)ccc1c23`, the IC50 is > 80 µM (inactive).

As to `O=C(CCCc1nc(-c2ccccc2Cl)no1)NC1CCCC1`, the half-maximal inhibitory concentration (IC50) was 1.02 µM.

As to `CCN(C(=O)CN1C(=O)NC(c2ccccc2)(c2ccc(C)c(C)c2)C1=O)C1CCCCC1` (centres undefined), the IC50 is 38.9 µM (inactive).

Regarding `COc1cccc(/C=C2/SC(=S)N(CCCC(=O)Nc3ccc(O)cc3)C2=O)c1`, the IC50 is 29.5 µM (inactive).

For the molecule `CCOc1cc(/C=N\Nc2nc(Nc3ccccc3)nc(N3CCOCC3)n2)ccc1OC(=O)c1ccco1`, the IC50 was > 80 µM (inactive).

In the case of `COc1ccc(/C=C2/SC(=S)N(CCCC(=O)Nc3cccc(O)c3)C2=O)cc1`, the IC50 was > 80 µM (inactive).

With `CC1CCN(c2c(NCc3ccc(C(=O)N4c5ccccc5CC4C)cc3)c(=O)c2=O)CC1` (centres undefined), the IC50 was > 80 µM (inactive).

With `CCOC(=O)Cc1csc(NC(=S)NC(=O)c2ccc(Cl)cc2)n1`, the 50% inhibitory concentration (IC50) is 3.85 µM.

With `N#CC1=C(N)Oc2cc(Nc3ccccc3)ccc2C1c1ccncc1` (centres undefined), the IC50 is 60.6 µM (inactive).

For `Cc1cc(C)cc(NC(=O)c2nnn(Cc3cc(C)ccc3C)c2N)c1`, the IC50 was > 80 µM (inactive).

Consider `CCN(CC(=O)Nc1c(F)cccc1F)C(=O)c1cc(S(=O)(=O)N2CCOCC2)ccc1N1CCCC1`, for which the IC50 was > 80 µM (inactive).

As to `CCCS(=O)(=O)Nc1cccc(-c2ccc3nnc(C)n3n2)c1`, the IC50 is > 80 µM (inactive).

As for `COc1ccc(OC)c(S(=O)(=O)Nc2ccc(-c3ccc4nnc(C)n4n3)cc2)c1`, the IC50 is 11.5 µM.

For `COc1ccc(NC(=O)c2cc3c(Cl)nc4ccccc4c3s2)cc1OC`, the IC50 was 61.9 µM (inactive).

As to `COc1ccc(C(C(=O)NC2CCCCC2)N(C(=O)CCl)c2ccc(OC)cc2)cc1` (centres undefined), the half-maximal inhibitory concentration (IC50) was 0.65 µM.

As to `CC(C)C(=O)Nc1ccc(NC(=O)c2ccc3c(c2)OCO3)cc1`, the IC50 was > 80 µM (inactive).

For `CCN(CC(=O)Nc1c(F)cccc1F)C(=O)C1(c2ccccc2)CC1`, the IC50 was > 80 µM (inactive).

Turning to `CN(CC1CCCO1)S(=O)(=O)c1ccc(C(=O)Nc2nc3cc4c(cc3s2)OCO4)cc1` (centres undefined), the IC50 is > 80 µM (inactive).

For the molecule `CC(C)(C)c1ccc(-n2ncc3c2CCCC3NC(=O)C2(C(N)=O)CC2)cc1` (centres undefined), the IC50 is > 80 µM (inactive).

Turning to `CCc1ccc(/C=C2/SC(=S)N(CCC(=O)Nc3ccc(C(=O)O)cc3)C2=O)cc1`, the IC50 is > 80 µM (inactive).

In the case of `CCc1ccc2[nH]c3nc(N/N=C/c4cccc(O)c4)nnc3c2c1`, the IC50 was > 80 µM (inactive).

As for `COc1ccc(OC)c(C2CC(=O)Nc3cc(OC)c(OC)c(OC)c32)c1` (centres undefined), the IC50 is > 80 µM (inactive).

As to `COc1cccc(-c2noc(CCC(=O)NCCc3ccccc3)n2)c1`, the IC50 was 29.8 µM (inactive).

Turning to `CCN1C(=O)Nc2cccc3cccc1c23`, the IC50 is 36.2 µM (inactive).

`COc1ccc(C(=O)N/N=C/c2sc(N3CCOCC3)nc2-c2ccccc2)cc1OC`: the IC50 was 35.5 µM (inactive).

Consider `CCSc1ncc(Cl)c(C(=O)Nc2sc3c(c2C(=O)NCc2cccnc2)CCCC3)n1`, for which the IC50 was > 80 µM (inactive).

For `Cc1cc2ccccn2c1C(=O)c1ccc(NN)c([N+](=O)[O-])c1`, the IC50 was > 80 µM (inactive).

With `Cc1ccc(-c2cn(-c3ccccc3)c3[n+]2CCCS3)cc1`, the IC50 was > 80 µM (inactive).

`Cc1cc(OCC(=O)N2CCC(C(N)=O)CC2)c2c3c(c(=O)oc2c1)CCCC3`: the IC50 was > 80 µM (inactive).

For `Cc1[nH]c2ccccc2c1C(=O)CN1C(=O)NC2(CC(C)CC(C)(C)C2)C1=O` (centres undefined), the IC50 is 52.7 µM (inactive).

`Cc1ccc(S(=O)(=O)CC2CSc3nc4ccccc4n32)cc1` (centres undefined): the IC50 is > 80 µM (inactive).

Consider `Cc1nc2cc(-c3ccccc3)nn2c(C)c1CCC(=O)N1CCC2(CC1)OCCO2`, for which the IC50 was > 80 µM (inactive).

For the molecule `Cc1ccc(/C=C2\SC(=S)N(CCCC(=O)NC3CCCC3)C2=O)cc1`, the IC50 is 0.73 µM.

`O=C(Nc1cccc(Oc2ccc3c(c2)C(=O)NC3=O)c1)c1cccs1`: the IC50 is > 80 µM (inactive).

As for `CSC1CCCCC1(O)CSc1nc2c(cc1C#N)CCCC2` (centres undefined), the IC50 is > 80 µM (inactive).

As to `CCOc1ccc(-c2nnc(SCC(=O)Nc3cc(C)on3)o2)cc1`, the IC50 was 1.52 µM.

Consider `CC1Cc2ccccc2N1S(=O)(=O)c1cnc(Cl)c(Cl)c1` (centres undefined), for which the IC50 is 31.6 µM (inactive).

Regarding `COCCCn1c(=O)/c(=C\c2cccc(OC)c2OC)s/c1=C(/C#N)C(=O)Nc1ccc(C(=O)O)cc1`, the IC50 was > 80 µM (inactive).

`CC(C)(C)c1ccc(-c2noc(CCC(N)=O)n2)cc1`: the concentration for half-maximal inhibition (IC50) is less than 0.16 µM.

`Cn1nnnc1Sc1ncnc2scc(Br)c12`: the IC50 was 1.13 µM.

Regarding `Cn1c(=O)cc(OCCCC(=O)NCc2ccccn2)c2ccccc21`, the IC50 is > 80 µM (inactive).

As for `Cn1c(=O)n(C)c2cc(NC(=O)CSc3nnc(-c4ccccc4O)n3-c3ccccc3)ccc21`, the IC50 is 50.1 µM (inactive).

Regarding `CCc1ccc(/C=C2\SC(=S)N(CCC(=O)Nc3cc(C)on3)C2=O)cc1`, the IC50 is 4.06 µM.

As to `CCOc1ccc(-n2c(-c3ccccc3)c[n+]3c2CCCCC3)cc1`, the IC50 is > 80 µM (inactive).

Regarding `COc1ccc(NC(=O)CN(C)C(=O)C2(c3ccccc3)CCCC2)cc1`, the IC50 is > 80 µM (inactive).

Regarding `O=C(CCCN1C(=O)/C(=C/c2ccccc2Cl)SC1=S)NNC(=O)c1ccncc1`, the IC50 is 7.79 µM.
